# Experimental data published in ChEMBL document CHEMBL5608184, “Discovery and mechanistic insights into thieno[3,2-d]pyrimidine and heterocyclic fused pyrimidines inhibitors targeting tubulin for cancer therapy” (Eur J Med Chem, 2024).
# How the values were obtained:
# SK-OV-3 [1] = assay: Induction of apoptosis in human SK-OV-3 cells assessed as viable cells at 2.5 nM incubated for 48 hrs by Annexin V-APC-A/7-AAD-A staining based flow cytometry (reference value: 97.50 %); assay type: functional; settings: read-out: Activity
# SK-OV-3 [2] = assay: Induction of apoptosis in human SK-OV-3 cells assessed as early apoptotic cells at 0.625 nM incubated for 48 hrs by Annexin V-APC-A/7-AAD-A staining based flow cytometry (reference value: 1.10 %); assay type: functional
# SK-OV-3 [3] = assay: Induction of apoptosis in human SK-OV-3 cells assessed as necrotic cells at 1.25 nM incubated for 48 hrs by Annexin V-APC-A/7-AAD-A staining based flow cytometry (reference value: 0.21 %); assay type: functional
# SK-OV-3 [4] = assay: Induction of apoptosis in human SK-OV-3 cells assessed as viable cells at 1.25 nM incubated for 48 hrs by Annexin V-APC-A/7-AAD-A staining based flow cytometry (reference value: 97.50 %); assay type: functional; settings: read-out: Activity
# SK-OV-3 [5] = assay: Induction of apoptosis in human SK-OV-3 cells assessed as necrotic cells at 0.625 nM incubated for 48 hrs by Annexin V-APC-A/7-AAD-A staining based flow cytometry (reference value: 0.21 %); assay type: functional
# SK-OV-3 [6] = assay: Induction of apoptosis in human SK-OV-3 cells assessed as viable cells at 0.625 nM incubated for 48 hrs by Annexin V-APC-A/7-AAD-A staining based flow cytometry (reference value: 97.50 %); assay type: functional; settings: read-out: Activity
# SK-OV-3 [7] = assay: Inhibition of cell migration in human SK-OV-3 cells assessed as relative wound density at 0.625 nM incubated for 24 hrs by wound healing assay (reference value: 61.61 %); assay type: functional; parameters: scale not given: the % may be the effect or the level left
# SK-OV-3 [8] = assay: Inhibition of cell migration in human SK-OV-3 cells assessed as relative wound density at 1.25 nM incubated for 24 hrs by wound healing assay (reference value: 61.61 %); assay type: functional; parameters: scale not given: the % may be the effect or the level left
# SK-OV-3 [9] = assay: Induction of apoptosis in human SK-OV-3 cells assessed as necrotic cells at 2.5 nM incubated for 48 hrs by Annexin V-APC-A/7-AAD-A staining based flow cytometry (reference value: 0.21 %); assay type: functional
# SK-OV-3 [10] = assay: Inhibition of cell migration in human SK-OV-3 cells assessed as relative wound density at 5 nM incubated for 24 hrs by wound healing assay (reference value: 61.61 %); assay type: functional; parameters: scale not given: the % may be the effect or the level left
# SK-OV-3 [11] = assay: Induction of apoptosis in human SK-OV-3 cells assessed as early apoptotic cells at 2.5 nM incubated for 48 hrs by Annexin V-APC-A/7-AAD-A staining based flow cytometry (reference value: 1.10 %); assay type: functional
# SK-OV-3 [12] = assay: Induction of apoptosis in human SK-OV-3 cells assessed as late apoptotic cells at 0.625 nM incubated for 48 hrs by Annexin V-APC-A/7-AAD-A staining based flow cytometry (reference value: 1.20 %); assay type: functional
# SK-OV-3 [13] = assay: Induction of cell cycle arrest at G2/M phase in human SK-OV-3 cells at 0.625 nM incubated for 24 hrs by PI staining based flow cytometry (reference value: 30.13 %); assay type: functional
# SK-OV-3 [14] = assay: Induction of apoptosis in human SK-OV-3 cells assessed as early apoptotic cells at 5 nM incubated for 48 hrs by Annexin V-APC-A/7-AAD-A staining based flow cytometry (reference value: 1.10 %); assay type: functional
# SK-OV-3 [15] = assay: Induction of apoptosis in human SK-OV-3 cells assessed as early apoptotic cells at 1.25 nM incubated for 48 hrs by Annexin V-APC-A/7-AAD-A staining based flow cytometry (reference value: 1.10 %); assay type: functional
# SK-OV-3 [16] = assay: Induction of cell cycle arrest at G2/M phase in human SK-OV-3 cells at 0.625 nM incubated for 24 hrs by PI staining based flow cytometry (reference value: 29.73 %); assay type: functional
# SK-OV-3 [17] = assay: Induction of apoptosis in human SK-OV-3 cells assessed as late apoptotic cells at 0.625 nM incubated for 48 hrs by Annexin V-APC-A/7-AAD-A staining based flow cytometry (reference value: 1.22 %); assay type: functional
# SK-OV-3 [18] = assay: Induction of apoptosis in human SK-OV-3 cells assessed as late apoptotic cells at 2.5 nM incubated for 48 hrs by Annexin V-APC-A/7-AAD-A staining based flow cytometry (reference value: 1.22 %); assay type: functional
# SK-OV-3 [19] = assay: Induction of cell cycle arrest at G2/M phase in human SK-OV-3 cells at 2.5 nM incubated for 24 hrs by PI staining based flow cytometry (reference value: 29.73 %); assay type: functional
# SK-OV-3 [20] = assay: Induction of apoptosis in human SK-OV-3 cells assessed as late apoptotic cells at 1.25 nM incubated for 48 hrs by Annexin V-APC-A/7-AAD-A staining based flow cytometry (reference value: 1.22 %); assay type: functional
# SK-OV-3 [21] = assay: Induction of cell cycle arrest at G2/M phase in human SK-OV-3 cells at 1.25 nM incubated for 24 hrs by PI staining based flow cytometry (reference value: 29.73 %); assay type: functional
# SK-OV-3 [22] = assay: Inhibition of cell migration in human SK-OV-3 cells assessed as relative wound density at 0.625 nM incubated for 24 hrs by wound healing assay (reference value: 74.53 %); assay type: functional; parameters: scale not given: the % may be the effect or the level left
# SK-OV-3 [23] = assay: Inhibition of cell migration in human SK-OV-3 cells assessed as relative wound density at 2.5 nM incubated for 24 hrs by wound healing assay (reference value: 74.53 %); assay type: functional; parameters: scale not given: the % may be the effect or the level left
# SK-OV-3 [24] = assay: Induction of apoptosis in human SK-OV-3 cells assessed as early apoptotic cells at 1.25 nM incubated for 48 hrs by Annexin V-APC-A/7-AAD-A staining based flow cytometry (reference value: 1.12 %); assay type: functional
# SK-OV-3 [25] = assay: Induction of apoptosis in human SK-OV-3 cells assessed as viable cells at 5 nM incubated for 48 hrs by Annexin V-APC-A/7-AAD-A staining based flow cytometry (reference value: 97.17 %); assay type: functional; settings: read-out: Activity
# Tubulin = assay: Binding affinity to CM5-chip immobilized tubulin (unknown origin) assessed as dissociation constant by SPR analysis; assay type: protein-complex assay, Homo sapiens
# SK-OV-3 [26] = assay: Induction of apoptosis in human SK-OV-3 cells assessed as viable cells at 0.625 nM incubated for 48 hrs by Annexin V-APC-A/7-AAD-A staining based flow cytometry (reference value: 97.17 %); assay type: functional; settings: read-out: Activity
# SK-OV-3 [27] = assay: Induction of apoptosis in human SK-OV-3 cells assessed as early apoptotic cells at 0.625 nM incubated for 48 hrs by Annexin V-APC-A/7-AAD-A staining based flow cytometry (reference value: 1.12 %); assay type: functional
# SK-OV-3 [28] = assay: Induction of cell cycle arrest at G2/M phase in human SK-OV-3 cells at 5 nM incubated for 24 hrs by PI staining based flow cytometry (reference value: 29.73 %); assay type: functional
# SK-OV-3 [29] = assay: Inhibition of cell migration in human SK-OV-3 cells assessed as relative wound density at 5 nM incubated for 24 hrs by wound healing assay (reference value: 74.53 %); assay type: functional; parameters: scale not given: the % may be the effect or the level left
# SK-OV-3 [30] = assay: Induction of apoptosis in human SK-OV-3 cells assessed as early apoptotic cells at 2.5 nM incubated for 48 hrs by Annexin V-APC-A/7-AAD-A staining based flow cytometry (reference value: 1.12 %); assay type: functional
# SK-OV-3 [31] = assay: Inhibition of cell migration in human SK-OV-3 cells assessed as relative wound density at 1.25 nM incubated for 24 hrs by wound healing assay (reference value: 74.53 %); assay type: functional; parameters: scale not given: the % may be the effect or the level left
smiles,measurement,setting,value
COc1ccc(N(C)c2nc(Cl)nc3ccn(C)c23)cc1,viability at 0.0025 µM,SK-OV-3 [1],75.9%
same,Activity,SK-OV-3 [2],1.53%
same,Activity,SK-OV-3 [3],0.56%
same,viability at 0.00125 µM,SK-OV-3 [4],94.1%
same,Activity,SK-OV-3 [5],0.33%
same,viability at 0.000625 µM,SK-OV-3 [6],96.2%
same,Activity,SK-OV-3 [7],58.03%
same,Activity,SK-OV-3 [8],54.94%
same,Activity,SK-OV-3 [9],1.17%
same,Activity,SK-OV-3 [10],12.11%
same,Activity,SK-OV-3 [11],20.62%
same,Activity,SK-OV-3 [12],1.93%
same,Activity,SK-OV-3 [13],32.3%
same,Activity,SK-OV-3 [14],39.84%
same,Activity,SK-OV-3 [15],2.83%
COc1ccc2c(c1)NC(=O)CN2c1nc(Cl)nc2ccsc12,Activity,SK-OV-3 [16],41.72%
same,Activity,SK-OV-3 [17],2.48%
same,Activity,SK-OV-3 [18],4.71%
same,Activity,SK-OV-3 [19],88.2%
same,Activity,SK-OV-3 [20],4.64%
same,Activity,SK-OV-3 [21],85.13%
same,Activity,SK-OV-3 [22],67.94%
same,Activity,SK-OV-3 [23],9.35%
same,Activity,SK-OV-3 [24],38.42%
same,viability at 0.005 µM,SK-OV-3 [25],62.1%
same,Kd,Tubulin,24.4 µM
same,viability at 0.000625 µM,SK-OV-3 [26],81%
same,Activity,SK-OV-3 [27],15.61%
same,Activity,SK-OV-3 [28],88.67%
same,Activity,SK-OV-3 [29],7.98%
same,Activity,SK-OV-3 [30],39.07%
same,Activity,SK-OV-3 [31],33.15%
